Measured values taken from patent US10544130B2, “Metallo-beta-lactamase inhibitors” (priority 2015, dated 2020).

System: Pseudomonas aeruginosa PAO1 MB9798 (efflux+, IMP-1)
Conditions: ratio MITC95 PA 9798/MITC95 PA 9799; imipenem at 2 μg/mL
Procedure, shortened: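 Isogenic PAO1 pair (efflux+ MB9798, efflux− MB9799, both IMP-1) tested by microbroth MIC with fixed imipenem and/or ceftazidime, usually at CLSI breakpoint, plus fixed class A/C inhibitor against AmpC. MBL inhibitor titrated; concentration restoring susceptibility recorded and fold difference between strains taken as efflux extent.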

SMILES	Efflux ratio
Nc1nc2c(-c3ccc(S(=O)(=O)NC4CCC5OC4CC5N)c(S(N)(=O)=O)c3-c3nnn[nH]3)cccc2s1.O=C(O)C(F)(F)F (centres unmarked) [Example 95, 2-(4-(2-aminobenzo[d]thiazol-4-yl)-2-sulfamoyl-3-(1H-tetrazol-5-yl)phenylsulfonamido)-8-oxabicyclo[3.2.1] octan-6-aminium 2,2,2-trifluoroacetate]	1.00
Nc1nc2c(-c3ccc(S(=O)(=O)NCC4COCCN4)c(S(N)(=O)=O)c3-c3nnn[nH]3)cccc2s1.O=C(O)C(F)(F)F (centres unmarked) [Example 96, 3-((4-(2-aminobenzo[d]thiazol-4-yl)-2-sulfamoyl-3-(1H-tetrazol-5-yl)phenylsulfonamido)methyl)morpholin-4-ium 2,2,2-trifluoroacetate]	1.00
Nc1nc2c(-c3ccc(S(=O)(=O)NC4CN5CCC4CC5)c(S(N)(=O)=O)c3-c3nnn[nH]3)cccc2s1.O=C(O)C(F)(F)F (centres unmarked) [Example 97, 3-(4-(2-aminobenzo[d]thiazol-4-yl)-2-sulfamoyl-3-(1H-tetrazol-5-yl)phenylsulfonamido) quinuclidin-1-ium 2,2,2-trifluoroacetate]	1.00
Nc1nc2c(-c3ccc(S(=O)(=O)N[C@@H](N)c4ccccn4)c(S(N)(=O)=O)c3-c3nnn[nH]3)cccc2s1.O=C(O)C(F)(F)F [Example 99, (R)-(4-(2-aminobenzo[d]thiazol-4-yl)-2-sulfamoyl-3-(1H-tetrazol-5-yl)phenylsulfonamido) (pyridin-2-yl)methanaminium 2,2,2-trifluoroacetate]	8.00
CN(CCc1ccncc1)S(=O)(=O)c1ccc(-c2cccc3sc(N)nc23)c(-c2nnn[nH]2)c1S(N)(=O)=O.O=C(O)C(F)(F)F [Example 100, 4-(2-(4-(2-aminobenzo[d]thiazol-4-yl)-N-methyl-2-sulfamoyl-3-(1H-tetrazol-5-yl)phenylsulfonamido)ethyl)pyridin-1-ium 2,2,2-trifluoroacetate]	32.00
CC1(CN)CN(S(=O)(=O)c2ccc(-c3cccc4sc(N)nc34)c(-c3nnn[nH]3)c2S(N)(=O)=O)C1.O=C(O)C(F)(F)F [Example 101, (1-((4-(2-aminobenzo[d]thiazol-4-yl)-2-sulfamoyl-3-(1H-tetrazol-5-yl)phenyl)sulfonyl)-3-methylazetidin-3-yl)methanaminium 2,2,2-trifluoroacetate]	1.00
CN1CCC(CNS(=O)(=O)c2ccc(-c3cccc4sc(N)nc34)c(-c3nnn[nH]3)c2S(N)(=O)=O)C1.O=C(O)C(F)(F)F (centres unmarked) [Example 102, 3-((4-(2-aminobenzo[d]thiazol-4-yl)-2-sulfamoyl-3-(1H-tetrazol-5-yl)phenylsulfonamido)methyl)-1-methylpyrrolidin-1-ium 2,2,2-trifluoroacetate]	0.50
Nc1nc2c(-c3ccc(S(=O)(=O)N[C@H]4CO[C@H]5[C@@H]4OC[C@H]5N)c(S(N)(=O)=O)c3-c3nnn[nH]3)cccc2s1.O=C(O)C(F)(F)F [Example 103, (3R,3aR,6S,6aR)-6-(4-(2-aminobenzo[d]thiazol-4-yl)-2-sulfamoyl-3-(1H-tetrazol-5-yl)phenylsulfonamido) hexahydrofuro[3,2-b] furan-3-aminium 2,2,2-trifluoroacetate]	2.00
NCC1CN(S(=O)(=O)c2ccc(-c3cccc4sc(N)nc34)c(-c3nnn[nH]3)c2S(N)(=O)=O)CCO1.O=C(O)C(F)(F)F (centres unmarked) [Example 104, (4-((4-(2-aminobenzo[d]thiazol-4-yl)-2-sulfamoyl-3-(1H-tetrazol-5-yl)phenyl)sulfonyl)morpholin-2-yl) methanaminium 2,2,2-trifluoroacetate]	2.00
CN(C1CNC1)S(=O)(=O)c1ccc(-c2cccc3sc(N)nc23)c(-c2nnn[nH]2)c1S(N)(=O)=O.O=C(O)C(F)(F)F [Example 105, 3-(4-(2-aminobenzo[d]thiazol-4-yl)-N-methyl-2-sulfamoyl-3-(1H-tetrazol-5-yl)phenylsulfonamido) azetidin-1-ium 2,2,2-trifluoroacetate]	1.00
Nc1nc2c(-c3ccc(S(=O)(=O)NCc4ccccn4)c(S(N)(=O)=O)c3-c3nnn[nH]3)cccc2s1.O=C(O)C(F)(F)F [Example 106, 2-((4-(2-aminobenzo[d]thiazol-4-yl)-2-sulfamoyl-3-(1H-tetrazol-5-yl)phenylsulfonamido)methyl)pyridin-1-ium 2,2,2-trifluoroacetate]	4.00
CN1CC(N(C)S(=O)(=O)c2ccc(-c3cccc4sc(N)nc34)c(-c3nnn[nH]3)c2S(N)(=O)=O)C1.O=C(O)C(F)(F)F [Example 107, 3-(4-(2-aminobenzo[d]thiazol-4-yl)-N-methyl-2-sulfamoyl-3-(1H-tetrazol-5-yl)phenylsulfonamido)-1-methylazetidin-1-ium 2,2,2-trifluoroacetate]	4.00
CO[C@H]1CNC[C@@H]1NS(=O)(=O)c1ccc(-c2cccc3sc(N)nc23)c(-c2nnn[nH]2)c1S(N)(=O)=O.O=C(O)C(F)(F)F [Example 108, (3S,4S)-3-(4-(2-aminobenzo[d]thiazol-4-yl)-2-sulfamoyl-3-(1H-tetrazol-5-yl)phenylsulfonamido)-4-methoxypyrrolidin-1-ium 2,2,2-trifluoroacetate]	1.00
CC(N)CNS(=O)(=O)c1ccc(-c2cccc3sc(N)nc23)c(-c2nnn[nH]2)c1S(N)(=O)=O.O=C(O)C(F)(F)F (stereo not drawn) [Example 109, l-(4-(2-aminobenzo[d]thiazol-4-yl)-2-sulfamoyl-3-(1H-tetrazol-5-yl)phenylsulfonamido) propan-2-aminium 2,2,2-trifluoroacetate]	0.50
NCC1CCCCN1S(=O)(=O)c1ccc(-c2cccc3sc(N)nc23)c(-c2nnn[nH]2)c1S(N)(=O)=O.O=C(O)C(F)(F)F (centres unmarked) [Example 110, (1-((4-(2-aminobenzo[d]thiazol-4-yl)-2-sulfamoyl-3-(1H-tetrazol-5-yl)phenyl)sulfonyl)piperidin-2-yl)methanaminium 2,2,2-trifluoroacetate]	1.00
Nc1nc2c(-c3ccc(S(=O)(=O)NC4C5CNCC54)c(S(N)(=O)=O)c3-c3nnn[nH]3)cccc2s1.O=C(O)C(F)(F)F (centres unmarked) [Example 111, 6-(4-(2-aminobenzo[d]thiazol-4-yl)-2-sulfamoyl-3-(1H-tetrazol-5-yl)phenylsulfonamido)-3-azabicyclo[3.1.0]hexan-3-ium 2,2,2-trifluoroacetate]	0.50
Nc1nc2c(-c3ccc(S(=O)(=O)NCC4CNCCO4)c(S(N)(=O)=O)c3-c3nnn[nH]3)cccc2s1.O=C(O)C(F)(F)F (centres unmarked) [Example 112, 2-((4-(2-aminobenzo[d]thiazol-4-yl)-2-sulfamoyl-3-(1H-tetrazol-5-yl)phenylsulfonamido)methyl)morpholin-4-ium 2,2,2-trifluoroacetate]	1.00
Nc1nc2c(-c3ccc(S(=O)(=O)NCC4(N)CCOCC4)c(S(N)(=O)=O)c3-c3nnn[nH]3)cccc2s1.O=CO [Example 115, 4-((4-(2-aminobenzo[d]thiazol-4-yl)-2-sulfamoyl-3-(1H-tetrazol-5-yl)phenylsulfonamido)methyl)tetrahydro-2H-pyran-4-aminium formate]	1.00
CC(CN)NS(=O)(=O)c1ccc(-c2cccc3sc(N)nc23)c(-c2nnn[nH]2)c1S(N)(=O)=O.O=CO (centres unmarked) [Example 116, 2-(4-(2-aminobenzo[d]thiazol-4-yl)-2-sulfamoyl-3-(1H-tetrazol-5-yl)phenylsulfonamido) propan-1-aminium formate]	0.50
Nc1nc2c(-c3ccc(S(=O)(=O)NC4C[C@@H]5CN[C@H]4C5)c(S(N)(=O)=O)c3-c3nnn[nH]3)cccc2s1.O=CO (stereo partly drawn) [Example 119, 4-(2-aminobenzo[d]thiazol-4-yl)-N1-((1S,4R)-2-azabicyclo[2.2.1]heptan-6-yl)-3-(1H-tetrazol-5-yl)benzene-1,2-disulfonamide, formate salt]	0.50
Nc1nc2c(-c3ccc(S(=O)(=O)NCC4CCNC4)c(S(N)(=O)=O)c3-c3nnn[nH]3)cccc2s1.O=CO (centres unmarked) [Example 120, 3-((4-(2-aminobenzo[d]thiazol-4-yl)-2-sulfamoyl-3-(1H-tetrazol-5-yl)phenylsulfonamido)methyl)pyrrolidin-1-ium formate]	0.50
CN(C[C@@H]1CCCN1)S(=O)(=O)c1ccc(-c2cccc3sc(N)nc23)c(-c2nnn[nH]2)c1S(N)(=O)=O.O=CO [Example 121, (S)-2-((4-(2-aminobenzo[d]thiazol-4-yl)-N-methyl-2-sulfamoyl-3-(1H-tetrazol-5-yl)phenylsulfonamido)methyl)pyrrolidin-1-ium formate]	4.00
Nc1nc2c(-c3ccc(S(=O)(=O)NCCC(N)CF)c(S(N)(=O)=O)c3-c3nnn[nH]3)cccc2s1.O=CO (stereo not drawn) [Example 123, 4-(4-(2-aminobenzo[d]thiazol-4-yl)-2-sulfamoyl-3-(1H-tetrazol-5-yl)phenylsulfonamido)-l-fluorobutan-2-aminium formate]	1.00
Nc1nc2c(-c3ccc(S(=O)(=O)NCCC(N)C(F)F)c(S(N)(=O)=O)c3-c3nnn[nH]3)cccc2s1.O=CO (centres unmarked) [Example 124, 4-(4-(2-aminobenzo[d]thiazol-4-yl)-2-sulfamoyl-3-(1H-tetrazol-5-yl)phenylsulfonamido)-1,1-difluorobutan-2-aminium formate]	4.00
C[C@H](N)CNS(=O)(=O)c1ccc(-c2cccc3sc(N)nc23)c(-c2nnn[nH]2)c1S(N)(=O)=O.O=CO [Example 127, (S)-4-(2-aminobenzo[d]thiazol-4-yl)-N1-(2-aminopropyl)-3-(1H-tetrazol-5-yl)benzene-1,2-disulfonamide, formate salt]	1.00
COC(=O)[C@H]1C[C@@H](NS(=O)(=O)c2ccc(-c3cccc4sc(N)nc34)c(-c3nnn[nH]3)c2S(N)(=O)=O)CN1 [Example 128, Methyl(2R,4R)-4-((4-(2-aminobenzo[d]thiazol-4-yl)-2-sulfamoyl-3-(1H-tetrazol-5-yl)phenyl)sulfonamido)pyrrolidine-2-carboxylate]	1.00
